Measurements from ChEMBL document CHEMBL1240391, “High prevalence of ST131 isolates producing CTX-M-15 and CTX-M-14 among extended-spectrum-beta-lactamase-producing Escherichia coli isolates from Canada” (2010).

Legend:
Format in all cases: functional
Escherichia coli [1] = experiment: Antimicrobial activity against CTX-M15/CTX-M14 ESBL producing Escherichia coli ST131 clonal complex isolate assessed as nonsusceptible isolates by CLSI method
Escherichia coli [2] = experiment: Antimicrobial activity against Escherichia coli assessed as nonsusceptible isolates by CLSI method
Escherichia coli [3] = experiment: Antimicrobial activity against ESBL producing Escherichia coli assessed as nonsusceptible isolates by CLSI method

Molecule `NC[C@H]1O[C@H](O[C@H]2[C@H](O)[C@@H](O[C@H]3O[C@H](CO)[C@@H](O)[C@H](N)[C@H]3O)[C@H](N)C[C@@H]2N)[C@H](N)C[C@@H]1O` [TOBRAMYCIN] has an Activity (Escherichia coli [1]) of 93%, an Activity (Escherichia coli [2]) of 69% and an Activity (Escherichia coli [3]) of 49%.
GENTAMICIN gave an Activity (Escherichia coli [1]) of 67%, an Activity (Escherichia coli [2]) of 50% and an Activity (Escherichia coli [3]) of 35%.
Molecule `NCC[C@H](O)C(=O)N[C@@H]1C[C@H](N)[C@@H](O[C@H]2O[C@H](CN)[C@@H](O)[C@H](O)[C@H]2O)[C@H](O)[C@H]1O[C@H]1O[C@H](CO)[C@@H](O)[C@H](N)[C@H]1O` [AMIKACIN] has an Activity (Escherichia coli [1]) of 45%, an Activity (Escherichia coli [2]) of 39% and an Activity (Escherichia coli [3]) of 35%.
`O=C1CN(/N=C/c2ccc([N+](=O)[O-])o2)C(=O)N1` [NITROFURANTOIN] was tested, and the Activity (Escherichia coli [1]) was 4%, the Activity (Escherichia coli [2]) was 8% and the Activity (Escherichia coli [3]) was 12%.
